Assay results taken from paper PMC7251097, “Aspartate/asparagine-β-hydroxylase: a high-throughput mass spectrometric assay for discovery of small molecule inhibitors” (Scientific Reports, 2020).
Counter-ions that a name gives are not always drawn. Like-named read-outs stand apart in the source and are kept apart here.

Target: T1, His6-AspH315–758 (human aspartate/asparagine-β-hydroxylase, AspH) (Homo sapiens, UniProt Q12797)
T1 construct: N-Terminally His6-tagged human AspH315–758 (His6-AspH315–758) was produced in E. coli BL21 (DE3) cells; made in house; host or cells: E. coli BL21 (DE3), pET-28a(+) vector
T1 sequence (Q12797 315-758): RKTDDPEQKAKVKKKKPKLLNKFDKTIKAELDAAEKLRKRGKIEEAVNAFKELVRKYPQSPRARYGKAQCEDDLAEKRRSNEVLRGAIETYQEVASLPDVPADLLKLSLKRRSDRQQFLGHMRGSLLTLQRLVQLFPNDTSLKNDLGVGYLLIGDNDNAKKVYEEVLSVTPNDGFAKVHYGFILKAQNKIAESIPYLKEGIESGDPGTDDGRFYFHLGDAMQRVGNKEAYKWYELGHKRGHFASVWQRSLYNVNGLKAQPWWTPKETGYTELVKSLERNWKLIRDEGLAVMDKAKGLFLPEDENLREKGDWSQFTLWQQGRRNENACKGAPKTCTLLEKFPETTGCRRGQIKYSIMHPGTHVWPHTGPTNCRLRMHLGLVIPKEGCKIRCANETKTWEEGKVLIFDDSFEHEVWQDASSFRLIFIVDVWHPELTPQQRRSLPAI
Test: SPE-MS AspH inhibition assay (LOPAC screen at fixed 20 μM and IC50 dose-response), hydroxylation of cyclic peptide hFX-CP101–119
Type: biochemical

[1] = LOPAC Plate 4, compound at 20 uM
[2] = LOPAC Plate 4, compound at 20 uM, substrate conversion
[3] = LOPAC compound at fixed 20 uM, plate 1, normalised to DMSO and 2,4-PDCA controls
[4] = LOPAC compound at fixed 20 uM, substrate conversion, plate 1
[5] = LOPAC compound at 20uM, plate 3, conversion of substrate peptide
[6] = plate 5 (Pfitzer), test compounds at fixed 20 μM
[7] = plate 5 (Pfitzer), test compounds at fixed 20 μM, mean conversion DMSO 32.88
[8] = LOPAC compound at 20uM, plate 2, conversion of substrate peptide
[9] = LOPAC compound at 20uM, plate 2, normalised to DMSO and 2,4-PDCA controls

Compound: CNc1cc(NS(=O)(=O)c2ccc(N)cc2)nc(NC)n1.Cl.Cl [Ro 04-6790 dihydrochloride]
- % inhibition [1]: 35.85%
- % conversion [2]: 24.24%

Compound: C=CC[C@H](N)C(=O)O [L-allylglycine]
- Plate 1 (% inhibition) [3]: 0.29%
- Plate 1 (% conversion) [4]: 35.78%

Compound: CN(C)CCc1c[nH]c2ccc(Cn3cncn3)cc12.O=C(O)c1ccccc1 [Rizatriptan benzoate salt]
- Plate 3 (% conversion) [5]: 37.82%

Compound: NC(=S)c1ccc[n+]([C@@H]2O[C@@H](COP(=O)([O-])OP(=O)(O)OC[C@H]3O[C@@H](n4cnc5c(N)ncnc54)C(OP(=O)([O-])O)[C@H]3O)C(O)C2O)c1.[Na+] (stereo partly drawn) [Thio-NADP sodium]
- % conversion [2]: 24.90%

Compound: COc1ccccc1N1CCN(CCCCNC(=O)c2ccc3ccccc3c2)CC1 [BP 897]
- Plate 1 (% inhibition) [3]: -9.00%
- Plate 1 (% conversion) [4]: 38.89%

Compound: Cc1c(O)cccc1C(=O)N[C@@H](CSc1ccccc1)[C@H](O)CN1C[C@H]2CCCC[C@H]2C[C@H]1C(=O)NC(C)(C)C [Nelfinavir]
- Plate 5 (% inhibition) [6]: 38.58%
- Plate 5 (% conversion) [7]: 23.19%

Compound: Br.Br.N=C(N)SCCN
- Plate 1 (% inhibition) [3]: -13.77%
- Plate 1 (% conversion) [4]: 40.50%

Compound: O=c1n(CCCN2CCN(c3cccc(Cl)c3)CC2)nc2ccccn12 [Trazodone hydrochloride]
- % conversion [2]: 39.67%
- inhibition at 20 µM (LOPAC Plate 4, compound at 20 uM, read-out: % inhibition): -9.38%

Compound: CN(C)c1ccc(/C=C2\C(=O)Nc3ccccc32)cc1 [SU 4312]
- % inhibition [1]: 2.06%
- % conversion [2]: 35.77%

Compound: N[C@@H](CC(=O)O)C(=O)O [L-Aspartic acid]
- Plate 1 (% inhibition) [3]: -3.19%
- Plate 1 (% conversion) [4]: 36.94%

Compound: CSc1nc(N)c2ncn([C@@H]3O[C@H](COP(=O)([O-])OP(=O)([O-])[O-])[C@@H](O)[C@H]3O)c2n1.O.[Na+].[Na+].[Na+]
- Plate 1 (% inhibition) [3]: 16.28%
- Plate 1 (% conversion) [4]: 30.40%

Compound: C[N+](C)(C)CCOC(=O)CBr.[Br-] [Bromoacetylcholine bromide]
- Plate 1 (% conversion): 36.25%
- Plate 1 (% inhibition): -1.12%

Compound: CC(C)(C)NC(=O)[C@@H]1CN(Cc2cccnc2)CCN1C[C@@H](O)C[C@@H](Cc1ccccc1)C(=O)N[C@H]1c2ccccc2C[C@H]1O.O=S(=O)(O)O [Indinavir sulfate salt hydrate]
- Plate 1 (% inhibition) [3]: -10.28%
- Plate 1 (% conversion) [4]: 39.32%

Compound: N=C(N)c1ccc(N)cc1 [4-Aminobenzamidine dihydrochloride]
- Plate 1 (% inhibition) [3]: -9.05%
- Plate 1 (% conversion) [4]: 38.91%

Compound: CC[C@H]1OC(=O)[C@H](C)[C@@H](O[C@H]2C[C@@](C)(OC)[C@@H](O)[C@H](C)O2)[C@H](C)[C@@H](O[C@@H]2O[C@H](C)C[C@H](N(C)C)[C@H]2O)[C@](C)(O)C[C@@H](C)CN(C)[C@H](C)[C@@H](O)[C@]1(C)O [Azithromycin]
- Plate 5 (% inhibition) [6]: -3.13%
- Plate 5 (% conversion) [7]: 37.38%

Compound: CC[C@]1(O)C[C@@H]2CN(CCc3c([nH]c4ccccc34)[C@@](C(=O)OC)(c3cc4c(cc3OC)N(C)[C@H]3[C@@](O)(C(=O)OC)[C@H](OC(C)=O)[C@]5(CC)C=CCN6CC[C@]43[C@@H]65)C2)C1.O=S(=O)(O)O [Vinblastine sulfate salt]
- % conversion: 54.00%
- % inhibition (20 µM): -51.36%

Compound: Cc1nc2c(OCc3ccccc3)cccn2c1CC#N [SCH-28080]
- Plate 2 (% conversion) [8]: 38.71%
- Plate 2 (% inhibition) [9]: -8.22%

Compound: COC(=O)[C@@H]1[C@H]2C[C@H]3c4[nH]c5ccccc5c4CCN3C[C@@H]2CC[C@@H]1O [Yohimbine hydrochloride]
- inhibition at 20 µM: -4.13%

Compound: C[N+](C)(C)CCCCCC[N+](C)(C)C.[Cl-].[Cl-] [Hexamethonium dichloride]
- Plate 2 (% conversion): 37.53%
- Plate 2 (% inhibition) (20 µM): -4.72%

Compound: Nc1nc(Cl)nc2c1ncn2[C@@H]1O[C@H](COP(=O)(O)OP(=O)(O)OP(=O)(O)O)C(O)C1O (stereo in doubt)
- Plate 2 (% conversion) [8]: 11.93%
- Plate 2 (% inhibition) [9]: 71.75%

Compound: COC(=O)C1=C(C)NC(C)=C([N+](=O)[O-])C1c1ccccc1C(F)(F)F (racemic) [(±)-Bay K 8644]
- Plate 1 (% inhibition) [3]: -22.02%
- Plate 1 (% conversion) [4]: 43.27%

Compound: CCCC(CCC)C(=O)O [Valproic acid sodium]
- Plate 3 (% conversion) [5]: 37.52%

Compound: Cn1ccc2cc3c(cc21)CCN3C(=O)Nc1cccnc1 [SB 206553 hydrochloride]
- % conversion: 28.82%

Compound: CCOC(=O)C1=C(O)C(=O)N(Cc2ccccc2)C1 [EBPC]
- % conversion [2]: 36.52%
- Plate 5 (% inhibition) [6]: 19.44%
- Plate 5 (% conversion) [7]: 29.70%

Compound: Ro 20-1724
- Plate 1 (% inhibition) [3]: -0.20%
- Plate 1 (% conversion) [4]: 35.94%

Compound: CN(C(=O)CCCOc1ccc2[nH]c(=O)ccc2c1)C1CCCCC1 [Cilostamide]
- Plate 1 (% inhibition) [3]: -8.28%
- Plate 1 (% conversion) [4]: 38.65%

Compound: CNS(=O)(=O)CCc1ccc2[nH]cc(C3CCN(C)CC3)c2c1 [Naratriptan hydrochloride]
- Plate 2 (% conversion) [8]: 39.49%
- inhibition at 20 µM (LOPAC compound at 20uM, plate 2, normalised to DMSO and 2,4-PDCA controls, read-out: Plate 2 (% inhibition)): -10.6%

Compound: COc1cc2c(c(OC)c1OC)-c1ccc(OC)c(=O)cc1[C@@H](NC(C)=O)CC2 [Colchicine]
- Plate 1 (% conversion): 37.55%
- Plate 1 (% inhibition): -5.00%

Compound: CN1CCC[C@@H]1Cc1c[nH]c2ccc(CCS(=O)(=O)c3ccccc3)cc12 [Eletriptan]
- Plate 5 (% inhibition) [6]: 0.46%
- Plate 5 (% conversion) [7]: 36.16%

Compound: CN1C(C(=O)Nc2ccccn2)=C(O)c2ccccc2S1(=O)=O [Piroxicam]
- Plate 3 (% conversion) [5]: 39.26%

Compound: COc1cc(Cc2cnc(N)nc2N)cc(OC)c1OC [Trimethoprim]
- % conversion [2]: 37.33%

Compound: O=c1ccn([C@@H]2O[C@H](COP(=O)([O-])OP(=O)([O-])O)[C@@H](O)[C@H]2O)c(=O)[nH]1.[Na+].[Na+] [Uridine 5-diphosphate sodium]
- % inhibition [1]: -0.23%
- % conversion [2]: 36.55%

Compound: O=C(O)CC[N+](=O)[O-] [3-Nitropropionic acid]
- Plate 3 (% conversion): 32.27%

Compound: Nc1ccc(CCN2CCN(c3cccc(C(F)(F)F)c3)CC2)cc1 [PAPP]
- % conversion: 42.06%
- % inhibition (20 µM): -16.38%

Compound: CC1=C(/C=C/C(C)=C/C=C/C(C)=C/C(=O)Nc2ccc(O)cc2)C(C)(C)CCC1 [Retinoic acid p-hydroxyanilide]
- Plate 2 (% conversion) [8]: 25.03%
- Plate 2 (% inhibition) [9]: 32.63%

Compound: Cn1cnc([N+](=O)[O-])c1Sc1ncnc2nc[nH]c12 [Azathioprine]
- Plate 1 (% inhibition) [3]: -17.98%
- Plate 1 (% conversion) [4]: 41.91%

Compound: O=C(O)/C=C/c1ccc(O)c(O)c1 [caffeic acid, reference compound]
- IC50 (50 nM His6-AspH315–758, 1.0 μM hFX-CP101–119, 3 μM 2OG, 2 μM Fe(II), 50 mM HEPES pH 7.5, 20 °C, mean ± SD, n = 2 (2,4-PDCA n = 10), read-out: IC50): 240 ± 80 nM
- Plate 1 (% conversion) [4]: 3.16%

Compound: COc1ccc2[n-]c([S@@+]([O-])Cc3ncc(C)c(OC)c3C)nc2c1.COc1ccc2[n-]c([S@@+]([O-])Cc3ncc(C)c(OC)c3C)nc2c1.O.O.[Mg+2] [Esomeprazole magnesium dihydrate]
- Plate 2 (% conversion) [8]: 41.52%
- Plate 2 (% inhibition) [9]: -16.62%

Compound: CCOC(=O)C1=C[C@]2(CC)CCCN3CCc4c(n1c1ccccc41)[C@@H]32 [Vinpocetine]
- % conversion [2]: 29.87%

Compound: COc1ccc(/C=C/c2nc(NCCCN(C)C)c3ccccc3n2)cc1 [CP-31398]
- Plate 5 (% conversion): 45.27%
- Plate 5 (% inhibition): -26.30%

Compound: CC1=C(C)C(=O)C(CCCCC#CCCCC#CCO)=C(C)C1=O [AA-861]
- Plate 1 (% inhibition) [3]: -23.70%
- Plate 1 (% conversion) [4]: 43.83%

Compound: O=C1OC(=O)[C@H]2[C@@H]1[C@@H]1CC[C@H]2O1 [Norcantharidin]
- Plate 3 (% conversion): 35.60%

Compound: N[C@@H](Cn1ccc(=O)c(O)c1)C(=O)O [L-Mimosine from Koa hoale seeds]
- % conversion: 35.13%
- % inhibition [1]: 3.94%

Compound: O=C(c1ccc2c(c1)OCCO2)N1CCCCC1 [CX 546]
- Plate 2 (% conversion) [8]: 39.70%
- Plate 2 (% inhibition) [9]: -11.19%

Compound: Cl.Clc1ccc(Cn2c(CN3CCCC3)nc3ccccc32)cc1 [Clemizole hydrochloride]
- Plate 1 (% inhibition) [3]: -13.99%
- Plate 1 (% conversion) [4]: 40.57%

Compound: CN(C)CCC(c1ccc(Cl)cc1)c1ccccn1.O=C(O)/C=C\C(=O)O (racemic) [(±)-Chlorpheniramine maleate]
- Plate 1 (% inhibition) [3]: -6.31%
- Plate 1 (% conversion) [4]: 37.99%

Compound: C=C(C)[C@H]1Cc2c(ccc3c2O[C@@H]2COc4cc(OC)c(OC)cc4[C@@H]2C3=O)O1 [Rotenone]
- % conversion: 46.53%

Compound: NC(=O)c1ncn([C@@H]2O[C@H](CO)[C@@H](O)[C@H]2O)c1O [Mizoribine]
- Plate 3 (% conversion) [5]: 41.03%

Compound: O.O=c1cc(-c2ccccc2)oc2c(O)c(O)ccc12 [7,8-Dihydroxyflavone hydrate, reference compound]
- % conversion: 2.70%
- inhibition at 20 µM: 99%
- inhibition at 20 µM (read-out: Inhibition at 20 µM [%]): 99%

Compound: Br.Br.CN(C)CCCc1cc(C(=O)Nc2ccc(-c3ccncc3)cc2)ccc1O [GR 55562 dihydrobromide]
- Plate 2 (% conversion) [8]: 31.31%
- Plate 2 (% inhibition) [9]: 13.87%
